Numbered stars: 1 amine (or outer) side, 2 acyl side, 3 side chain; on linkers, the order of the positions; unused ones are H or OH. Bridge positions count the residues as written; N and C are the ends. Square brackets hold non-standard residues; d marks the D form. Peptide text beside a SMILES is read from it. * marks the point of attachment. Bip(4'-COOH) = N[C@@H](Cc1ccc(-c2ccc(C(=O)O)cc2)cc1)C(=O)O; Bip(4'-NHAc) = CC(=O)Nc1ccc(-c2ccc(C[C@H](N)C(=O)O)cc2)cc1; Phe(3-CF3) = N[C@@H](Cc1cccc(C(F)(F)F)c1)C(=O)O; Ala(morpholin-4-yl) = N[C@@H](CN1CCOCC1)C(=O)O; Phe(4-CONH2) = NC(=O)c1ccc(C[C@H](N)C(=O)O)cc1; Phe(4-COOH) = N[C@@H](Cc1ccc(C(=O)O)cc1)C(=O)O; X5 = CS(=O)(=O)NC(=O)C[C@H](N[*:1])C(=O)[*:2]; Bip = N[C@@H](Cc1ccc(-c2ccccc2)cc1)C(=O)O; Phe(3-NH2) = Nc1cccc(C[C@H](N)C(=O)O)c1; Phe(3-Me) = Cc1cccc(C[C@H](N)C(=O)O)c1; Propanoyl(3,3,3-F3) = O=C(CC(F)(F)F)*; Val(3-OH) = CC(C)(O)[C@H](N)C(=O)O; hPhe = N[C@@H](CCc1ccccc1)C(=O)O; Cha = N[C@@H](CC1CCCCC1)C(=O)O; aThr = C[C@H](O)[C@H](N)C(=O)O; Suc = O=C(CCC(=O)[*:2])[*:1]; Carboxymethyl = O=C(O)C*; NMeA = CN[C@@H](C)C(=O)O; Orn = NCCC[C@H](N)C(=O)O; Dab = NCC[C@H](N)C(=O)O; Dap = NC[C@H](N)C(=O)O; X9 = O=C(CCF)*

The text below walks through data of US20240409585A1, “MACROCYCLIC IMMUNOMODULATORS” (priority 2021, published 2024).

For the first experiment, the target named is T1, Alexa fluor-647 labeled human PD-L1-Ig binding to Jurkat cell line over-expressing human PD-1 (Homo sapiens, UniProt Q15116).
T1 construct: expressed in transfected cells; host or cells: Jurkat
T1 sequence (Q15116 25-288): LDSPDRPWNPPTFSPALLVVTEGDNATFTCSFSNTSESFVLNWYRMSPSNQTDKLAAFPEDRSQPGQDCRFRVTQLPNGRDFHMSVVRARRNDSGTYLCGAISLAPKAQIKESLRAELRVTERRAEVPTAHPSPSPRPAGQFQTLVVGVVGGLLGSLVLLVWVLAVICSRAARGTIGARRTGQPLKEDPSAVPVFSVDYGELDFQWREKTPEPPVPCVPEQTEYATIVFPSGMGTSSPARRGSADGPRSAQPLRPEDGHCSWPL
In words: Jurkat-PD-1 Cell Binding High-Content Screening Assay (CBA): Method 3 (Alexa fluor-647 labeled PD-L1-Ig). The settings on record: Jurkat-PD-1 cells, Alexa fluor-647 labeled PD-L1-Ig 177 nM; head μM; read-out: CBA Method 3 μM. An outline of the steps:
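Jurkat cells over-expressing human PD-1 in RPMI/10% FCS were preincubated 2 h at 37 °C with compound, then exposed 1 h to Alexa fluor-647 labeled human PD-L1-Ig (177 nM final). Cells fixed in 4% paraformaldehyde with Hoechst 33342 and binding quantified by high-content imaging.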
For `CC(C)C[C@H]1NC(=O)[C@H](C)N(C)C(=O)[C@H](Cc2ccc(C(=O)O)cc2)NC(=O)[C@H](Cc2ccc(-c3ccccc3)cc2)NC(=O)[C@H](CCc2ccccc2)NC(=O)[C@H](Cc2cccc(C(F)(F)F)c2)NC(=O)[C@H](CC(=O)O)NC(=O)[C@H](Cc2ccc(C(=O)O)cc2)NC(=O)[C@H](CN2CCOCC2)NC(=O)CSC[C@@H](C(=O)N[C@@H](CCN)C(N)=O)NC(=O)[C@H](CNC(=O)CC(F)(F)F)NC(=O)[C@H](C(C)C)NC(=O)[C@H](CC2CCCCC2)NC(=O)[C@H](CCN)NC1=O` [Example 5207] ({CH2CO}-[Ala(morpholin-4-yl)][Phe(4-COOH)]D[Phe(3-CF3)][hPhe][Bip][Phe(4-COOH)][NMeA][dL][Dab][Cha]V[Dap](Propanoyl(3,3,3-F3))C[Dab]-NH2; thioether N-14), the IC50 is 0.03 µM.
The same measure, in the same setting: the result for `Cc1cccc(C[C@@H]2NC(=O)[C@H](CC(=O)O)NC(=O)[C@H](Cc3ccc(OCC(=O)O)cc3)NC(=O)[C@H](CC3CCCCC3)NC(=O)CSC[C@@H](C(=O)N[C@@H](CCN)C(N)=O)NC(=O)[C@H](CCCN)NC(=O)[C@H](C(C)C)NC(=O)[C@H](Cc3cccc(N)c3)NC(=O)[C@H](CCN)NC(=O)[C@@H](CC(C)C)NC(=O)[C@H](C)N(C)C(=O)[C@H](CCC(N)=O)NC(=O)[C@H](Cc3ccc(-c4ccccc4)cc3)NC(=O)[C@H](Cc3ccc(C(=O)O)cc3)NC2=O)c1` [Example 5190] ({CH2CO}-[Cha]Y(Carboxymethyl)D[Phe(3-Me)][Phe(4-COOH)][Bip]Q[NMeA][dL][Dab][Phe(3-NH2)]V[Orn]C[Dab]-NH2; thioether N-14) reads 0.02 µM.
Same read-out and setting: with `CC(=O)Nc1ccc(-c2ccc(C[C@@H]3NC(=O)[C@H](Cc4cccc(C(F)(F)F)c4)NC(=O)[C@H](CC(=O)NS(C)(=O)=O)NC(=O)[C@H](Cc4ccc(C(N)=O)cc4)NC(=O)[C@H]([C@H](C)O)NC(=O)CSC[C@@H](C(=O)N[C@@H](CCN)C(N)=O)NC(=O)[C@H](CC(N)=O)NC(=O)[C@H](C(C)C)NC(=O)[C@H](CC4CCCCC4)NC(=O)[C@H](CCN)NC(=O)[C@@H](CC(C)C)NC(=O)[C@H](C)N(C)C(=O)[C@H](Cc4ccc(C(N)=O)cc4)NC(=O)[C@H](Cc4ccc(-c5ccccc5)cc4)NC3=O)cc2)cc1` [Example 5115] ({CH2CO}-[aThr][Phe(4-CONH2)][X5][Phe(3-CF3)][Bip(4'-NHAc)][Bip][Phe(4-CONH2)][NMeA][dL][Dab][Cha]VNC[Dab]-NH2; thioether N-14) the figure was 0.28 µM.
Take `CC(C)C[C@H]1NC(=O)[C@H](C)N(C)C(=O)[C@H](Cc2ccc(C(=O)O)cc2)NC(=O)[C@H](Cc2ccc(-c3ccccc3)cc2)NC(=O)[C@H](Cc2ccc(-c3ccc(C(=O)O)cc3)cc2)NC(=O)[C@H](Cc2cccc(C(F)(F)F)c2)NC(=O)[C@H](CC(=O)O)NC(=O)[C@H](Cc2ccc(C(=O)O)cc2)NC(=O)[C@H](Cc2ccc(OCC(=O)O)cc2)NC(=O)CSC[C@@H](C(=O)N[C@@H](CCN)C(N)=O)NC(=O)[C@H](CCC(=O)O)NC(=O)[C@H](C(C)C)NC(=O)[C@H](CC2CCCCC2)NC(=O)[C@H](CCN)NC1=O` [Example 5164] ({CH2CO}-Y(Carboxymethyl)[Phe(4-COOH)]D[Phe(3-CF3)][Bip(4'-COOH)][Bip][Phe(4-COOH)][NMeA][dL][Dab][Cha]VEC[Dab]-NH2; thioether N-14): the IC50 came to 0.15 µM.
The same measure, in the same setting: with `CC(C)C[C@H]1NC(=O)[C@H](C)N(C)C(=O)[C@H](Cc2ccc(C(=O)O)cc2)NC(=O)[C@H](Cc2ccc(-c3ccccc3)cc2)NC(=O)[C@H](Cc2ccc(C(=O)O)cc2)NC(=O)[C@H](Cc2cccc(C(F)(F)F)c2)NC(=O)[C@H](CC(=O)O)NC(=O)[C@H](Cc2ccc(C(=O)O)cc2)NC(=O)[C@H](CN2CCOCC2)NC(=O)CSC[C@@H](C(=O)N[C@@H](CCN)C(N)=O)NC(=O)[C@H](CNC(=O)CCF)NC(=O)[C@H](C(C)C)NC(=O)[C@H](CC2CCCCC2)NC(=O)[C@H](CCN)NC1=O` [Example 5230] ({CH2CO}-[Ala(morpholin-4-yl)][Phe(4-COOH)]D[Phe(3-CF3)][Phe(4-COOH)][Bip][Phe(4-COOH)][NMeA][dL][Dab][Cha]V[Dap](X9)C[Dab]-NH2; thioether N-14) the figure was 0.03 µM.

Still in this experiment, the particulars now being: Jurkat-PD-1 cells, Alexa fluor-647 labeled PD-L1-Ig 177 nM; nM; read-out: CBA Method 3.
As for `Cc1cccc(C[C@@H]2NC(=O)[C@H](CC(=O)O)NC(=O)[C@H](Cc3ccc(OCC(=O)O)cc3)NC(=O)[C@H](Cc3ccc(OCC(=O)O)cc3)NC(=O)CSC[C@@H](C(=O)N[C@@H](CCN)C(N)=O)NC(=O)[C@H](CCCN)NC(=O)[C@H](C(C)C)NC(=O)[C@H](CC3CCCCC3)NC(=O)[C@H](CCN)NC(=O)[C@@H](CC(C)C)NC(=O)[C@H](C)N(C)C(=O)[C@H](CCC(N)=O)NC(=O)[C@H](Cc3ccc(-c4ccccc4)cc3)NC(=O)[C@H](Cc3ccc(C(=O)O)cc3)NC2=O)c1` [Example 5168] ({CH2CO}-Y(Carboxymethyl)Y(Carboxymethyl)D[Phe(3-Me)][Phe(4-COOH)][Bip]Q[NMeA][dL][Dab][Cha]V[Orn]C[Dab]-NH2; thioether N-14), the IC50 came to 0.0014 µM.
Take `Cc1cccc(C[C@@H]2NC(=O)[C@H](CC(=O)O)NC(=O)[C@H](Cc3ccc(-c4ccc(C(=O)O)cc4)cc3)NC(=O)[C@H](CN3CCOCC3)NC(=O)CSC[C@@H](C(=O)N[C@@H](CCN)C(N)=O)NC(=O)[C@H](CCC(=O)O)NC(=O)[C@H](C(C)(C)O)NC(=O)[C@H](CC(C)C)NC(=O)[C@H](CC(N)=O)NC(=O)[C@@H](CC(C)C)NC(=O)[C@H](C)N(C)C(=O)[C@H](C(C)C)NC(=O)[C@H](Cc3ccc(-c4ccccc4)cc3)NC(=O)[C@H](CC(C)C)NC2=O)c1` [Example 5126] ({CH2CO}-[Ala(morpholin-4-yl)][Bip(4'-COOH)]D[Phe(3-Me)]L[Bip]V[NMeA][dL]NL[Val(3-OH)]EC[Dab]-NH2; thioether N-14): the IC50 is 0.0032 µM.
The same measure, in the same setting: the result for `CC(=O)Nc1ccc(-c2ccc(C[C@@H]3NC(=O)[C@H](Cc4cccc(C(F)(F)F)c4)NC(=O)[C@H](CC(=O)O)NC(=O)[C@H](Cc4ccc(C(=O)O)cc4)NC(=O)[C@H](CN4CCOCC4)NC(=O)CSC[C@@H](C(=O)N[C@@H](CCN)C(N)=O)NC(=O)[C@H](CCC(=O)O)NC(=O)[C@H](C(C)C)NC(=O)[C@H](CC4CCCCC4)NC(=O)[C@H](CCN)NC(=O)[C@@H](CC(C)C)NC(=O)[C@H](C)N(C)C(=O)[C@H](Cc4ccc(C(=O)O)cc4)NC(=O)[C@H](Cc4ccc(-c5ccccc5)cc4)NC3=O)cc2)cc1` [Example 5149] ({CH2CO}-[Ala(morpholin-4-yl)][Phe(4-COOH)]D[Phe(3-CF3)][Bip(4'-NHAc)][Bip][Phe(4-COOH)][NMeA][dL][Dab][Cha]VEC[Dab]-NH2; thioether N-14) reads 0.0059 µM; that for `CC(C)C[C@H]1NC(=O)[C@H](C)N(C)C(=O)[C@H](Cc2ccc(C(=O)O)cc2)NC(=O)[C@H](Cc2ccc(-c3ccccc3)cc2)NC(=O)[C@H](Cc2ccc(C(=O)O)cc2)NC(=O)[C@H](Cc2cccc(C(F)(F)F)c2)NC(=O)[C@H](CC(=O)O)NC(=O)[C@H](Cc2ccc(C(=O)O)cc2)NC(=O)[C@H](CN2CCOCC2)NC(=O)CSC[C@@H](C(=O)N[C@@H](CCN)C(N)=O)NC(=O)[C@H](CNC(=O)CCC(=O)O)NC(=O)[C@H](C(C)C)NC(=O)[C@H](CC2CCCCC2)NC(=O)[C@H](CCN)NC1=O` [Example 5142] ({CH2CO}-[Ala(morpholin-4-yl)][Phe(4-COOH)]D[Phe(3-CF3)][Phe(4-COOH)][Bip][Phe(4-COOH)][NMeA][dL][Dab][Cha]V[Dap](Suc)C[Dab]-NH2; thioether N-14), 0.0033 µM.
